{"source": "patent US20180085381A1", "about": "“Adjunctive Therapy With 25-Hydroxyvitamin D” (priority 2014, published 2018)", "key": {"[1]": {"test_system": "castration-resistant prostate cancer or estrogen-independent breast cancer metastatic to bone", "test": "Efficacy study in patients with metastatic bone disease for prevention of SREs (24-month, placebo-controlled)", "format": "in vivo, human", "description": "Denosumab or zoledronic acid are administered according to the typical standard of care for each patient's condition. Patients are monitored for SREs, including by appropriate non-invasive imaging techniques, and serum markers of tumor burden and bone metabolism at 3-month intervals, and at monthly intervals for serum and urine calcium levels and plasma PTH. Cancer progression is monitored at quarterly intervals."}, "[2]": {"test_system": "adult male and female patients with osteoporosis", "test": "Efficacy study in osteoporosis patients treated with an antiresorptive agent (denosumab)", "format": "in vivo, human", "conditions": "for incidence of hypocalcemia and severity of secondary hyperparathyroidism: once stable dosing has been achieved, denosumab-treated"}, "[3]": {"test_system": "adult male patients with bone-metastasized castration-resistant prostate cancer", "test": "Efficacy study in prostate cancer patients treated with denosumab", "conditions": "for incidence of hypocalcemia and severity of SHPT and hypercalcemia: once stable dosing has been achieved, denosumab-treated", "procedure": "In a randomized, double-blind controlled study, patients are treated with denosumab (120 mg every four weeks). All denosumab-treated patients are randomized to receive daily oral treatment with one softgel capsule containing either 30 mcg of 25-hydroxyvitamin D3 in a modified release formulation or 400 IU of Vitamin D3 in an immediate release formulation. A total of 500 subjects participate in this study, all of whom are aged 18 years or older with histologically confirmed prostate cancer. […] All patients receive a radioisotope bone scan during screening with subsequent imaging by CT, MRI, or plain radiograph if needed to confirm bone metastases. All subjects receive calcium supplements (500 mg/day) and abstain from taking other Vitamin D supplements for 60 days before study start and continuing through study termination, and from significant sun exposure.\nAll subjects begin daily dosing with softgel capsules at the start of denosumab treatment. Serum total 25-hydroxyvitamin D, PTH, calcium, phosphorus, N- and C-telopeptides, and P1NP, and urinary calcium, phosphorus and creatinine, are measured monthly. Radiographic bone scans are conducted every 6 months to detect skeletal metastases, with a second imaging modality (CT, MRI, or plain radiograph) used to confirm diagnosis of any metastases detected. Bone mineral density at four sites (total hip, femoral neck, ⅓ radius and lumbar spine) is determined at the start of the study and thereafter at yearly intervals. After 3 months, the daily dosage of 25-hydroxyvitamin D3 capsules is maintained unchanged in patients whose serum total 25-hydroxyvitamin D is between 50 and 90 ng/mL, and increased by one 30 mcg capsule in patients whose serum total 25-hydroxyvitamin D is below 50 ng/mL."}, "[4]": {"test_system": "adult patients diagnosed with metastases in bone originating from breast or prostate cancer", "format": "in vivo, human", "description": "At the start of the study, all patients have plasma PTH greater than 70 pg/mL as evidence of SHPT, serum calcium less than 9.8 mg/dL, spot urine Ca:Cr ratio≦0.25 (≦250 mg/g creatinine) and an estimated glomerular filtration rate greater than 15 mL/min/1.73 m^2. […] Denosumab or zoledronic acid are administered according to the typical standard of care for each patient's condition.\nThe 52-week study consists of a 40 week dose escalation phase followed by a 12-week maintenance phase. At the end of the maintenance phase, there is a two-week follow up phase. At the start of the study, all patients receive an initial daily dose of 30 mcg 25-hydroxyvitamin D3, which is increased at four-week intervals over the course of the dose escalation phase up to a maximum daily dose of 300 mcg. The daily dose achieved by the end of the dose escalation study is the daily dose administered during the maintenance phase.\nBlood samples are collected at 2-week intervals for monitoring serum levels of calcium and phosphorus. Samples are collected at 4-week intervals for monitoring plasma levels of PTH and PTHrP and serum total 25-hydroxyvitamin D, 24,25-dihydroxyvitamin D3, calcitriol, and free and total calcifediol. Serum vitamin D metabolites and markers of bone metabolism, immune function, and tumor burden are measured at the beginning of the dose escalation phase and at the beginning and end of the maintenance phase. Urine samples are collected at 4-week intervals for monitoring the Ca/Cr ratio and urine chemistry. The genotype of vitamin D binding protein is determined for each subject at the beginning of the dose escalation phase."}, "[5]": {"test_system": "adult patients diagnosed with metastases in bone originating from breast or prostate cancer", "test": "Efficacy study in patients with metastatic bone disease receiving an antiresorptive agent (6-month, placebo-controlled)", "format": "in vivo, human", "description": "Denosumab or zoledronic acid are administered according to the typical standard of care for each patient's condition. […] Samples are collected at monthly intervals for monitoring serum and urine levels of calcium, plasma levels of PTH and serum total 25-hydroxyvitamin D. Serum markers of tumor burden and bone metabolism, as well as cancer progression are assessed at 3-month intervals."}, "[6]": {"test_system": "adult female patients with breast cancer", "test": "Efficacy study in breast cancer patients treated with denosumab", "format": "in vivo, human", "conditions": "for incidence of hypocalcemia and severity of secondary hyperparathyroidism: once stable dosing has been achieved, denosumab-treated"}, "[7]": {"test_system": "patients with bone metastases", "conditions": "patients with bone metastases treated with zoledronic acid; cited from earlier work"}, "[8]": {"conditions": "24 months, with denosumab or zoledronic acid, compared to placebo"}, "[9]": {"conditions": "with denosumab or zoledronic acid, compared to placebo combination"}, "[10]": {"conditions": "with denosumab, versus denosumab and vitamin D3"}, "[11]": {"conditions": "with denosumab, 24 months, compared to denosumab and Vitamin D3"}, "[12]": {"conditions": "6 months, with denosumab or zoledronic acid, compared to placebo"}}, "data": [{"smiles": "C=C1CC[C@H](O)C/C1=C/C=C1\\CCC[C@]2(C)[C@@H]([C@H](C)CCCC(C)(C)O)CC[C@@H]12", "note": "[25-hydroxyvitamin D3]", "values": [{"measurement": "plasma PTH", "setting": "[1]; [8]", "value": "decrease"}, {"measurement": "risk of hypocalcemia", "setting": "[1]; [8]", "value": "reduced risk"}, {"measurement": "serum calcium", "setting": "[1]; [8]", "value": "greater increase"}, {"measurement": "observed time to a post-treatment SRE", "setting": "[1]; compared to placebo", "value": "significantly increasing"}, {"measurement": "tumor progression", "setting": "[1]; compared to placebo", "value": "inhibiting tumor progression"}, {"measurement": "time to additional bone metastasis or SRE", "setting": "[1]; [9]", "value": "increased delay"}, {"measurement": "serum levels of 25-hydroxyvitamin D3 after 24 months", "setting": "[2]; human, in vivo", "value": "higher and more consistent"}, {"measurement": "side effects related to calcium and PTH metabolism", "setting": "[2]; human, in vivo", "value": "without causing unacceptable side effects"}, {"measurement": "incidence of hypocalcemia and severity of secondary hyperparathyroidism", "setting": "[2]", "value": "markedly reduced"}, {"measurement": "increases in bone mineral density", "setting": "[2]; with denosumab, 24 months, versus denosumab and Vitamin D3", "value": "larger increases"}, {"measurement": "serum PTH levels after 24 months", "setting": "[2]; [10]", "value": "lower"}, {"measurement": "side effects related to calcium and PTH metabolism", "setting": "[3]; modified release formulation, with denosumab", "value": "without causing unacceptable side effects"}, {"measurement": "incidence of hypocalcemia and severity of SHPT and hypercalcemia", "setting": "[3]", "value": "markedly reduced"}, {"measurement": "incidence of hypocalcemia", "setting": "[3]; [11]", "value": "significantly lower incidence"}, {"measurement": "increases in bone mineral density", "setting": "[3]; [11]", "value": "larger increases"}, {"measurement": "plasma PTH levels", "setting": "[3]; [11]", "value": "reduced"}, {"measurement": "time to first post-treatment SRE", "setting": "[3]; [11]", "value": "significantly delayed"}, {"measurement": "serum PTH levels after 24 months", "setting": "[3]; [10]", "value": "lower"}, {"measurement": "serum levels of 25-hydroxyvitamin D3 after 24 months", "setting": "[3]; [10]", "value": "higher and more consistent"}, {"measurement": "plasma PTH in the dose escalation phase", "setting": "[4]; 30 to 300 mcg daily, raised at four-week intervals, with denosumab or zoledronic acid", "value": "decreases"}, {"measurement": "change in serum 1,25-dihydroxyvitamin D", "setting": "[4]; human, in vivo", "value": "significant increases"}, {"measurement": "change in serum 24,25-dihydroxyvitamin D", "setting": "[4]; human, in vivo", "value": "significant increases"}, {"measurement": "change in serum total 25-hydroxyvitamin D", "setting": "[4]; human, in vivo", "value": "significant increases"}, {"measurement": "serum calcium in the dose escalation phase", "setting": "[4]; human, in vivo", "value": "gradually rises"}, {"measurement": "plasma PTH", "setting": "[5]; [12]", "value": "decrease"}, {"measurement": "risk of hypocalcemia", "setting": "[5]; [12]", "value": "reduced risk"}, {"measurement": "serum calcium", "setting": "[5]; [12]", "value": "greater increase"}, {"measurement": "side effects related to calcium and PTH metabolism", "setting": "[5]; modified release formulation", "value": "without causing unacceptable side effects"}, {"measurement": "cancer progression", "setting": "[5]; modified release formulation, 6 months", "value": "delaying cancer progression"}, {"measurement": "time to additional bone metastasis", "setting": "[5]; [9]", "value": "increased delay"}, {"measurement": "serum levels of 25-hydroxyvitamin D3 after 24 months", "setting": "[6]; human, in vivo", "value": "higher and more consistent"}, {"measurement": "side effects related to calcium and PTH metabolism", "setting": "[6]; human, in vivo", "value": "without causing unacceptable side effects"}, {"measurement": "incidence of hypocalcemia and severity of secondary hyperparathyroidism", "setting": "[6]", "value": "markedly reduced"}, {"measurement": "incidence of hypocalcemia", "setting": "[6]; [11]", "value": "significantly lower incidence"}, {"measurement": "increases in bone mineral density", "setting": "[6]; [11]", "value": "larger increases"}, {"measurement": "time to additional bone metastasis", "setting": "[6]; [11]", "value": "significantly delayed"}, {"measurement": "serum PTH levels after 24 months", "setting": "[6]; [10]", "value": "lower"}]}, {"smiles": "C=C1CC[C@H](O)C/C1=C/C=C1\\CCC[C@]2(C)[C@@H]([C@H](C)CCCC(C)C)CC[C@@H]12", "note": "[Vitamin D3, cholecalciferol, reference compound]", "values": [{"measurement": "incidence of hypocalcemia and severity of secondary hyperparathyroidism", "setting": "[2]", "value": "occur more frequently"}, {"measurement": "incidence of hypocalcemia and severity of SHPT and hypercalcemia", "setting": "[3]", "value": "more frequently"}, {"measurement": "incidence of hypocalcemia and severity of secondary hyperparathyroidism", "setting": "[6]", "value": "occur more frequently"}]}, {"smiles": "O=P(O)(O)C(O)(Cn1ccnc1)P(=O)(O)O", "note": "[zoledronic acid]", "values": [{"measurement": "patients who developed hypocalcemia", "setting": "[7]", "value": 39, "unit": "%"}]}]}
